Test results from patent US20230295133A1, “PROCESS FOR PREPARING A COMPOUND USEFUL TO TREAT MYCOSES” (PULMOCIDE LIMITED, priority 2014, published 2023).
≈ marks a conversion by molar mass, not a printed value.

Key:
[1] = test system: aspergillus fumigatus infection of BEAS2B cells; assay: Aspergillus fumigatus infection of bronchial epithelial cells (GM in supernatant); assay type: cell-based; details: bronchial epithelial cells infected with Aspergillus fumigatus; read-out: MIC50 Infection of BEAS2B cells
Method: BEAS2B cells were seeded in 96-well plates (100 µL; 30,000 cells / well; Catalogue No 3596, Sigma Aldrich, Dorset, UK) in 10% FBS RPMI-1640 and were then incubated (37° C., 5% CO2) for one day before experimentation. Test compounds (0.5 µL DMSO solution) or vehicle (DMSO) were added to each well to give a final DMSO concentration of 0.5%. BEAS2B cells were incubated with test compounds for 1 hr (35° C., 5% CO2) before infection with aspergillus fumigatus (20 µL; Public Health England) conidia suspension (0.5×10^5 /ml in 10% FBS RPMI-1640). The plate was incubated for 24 hr (35° C., 5% CO2). Supernatant (50 µL) was collected and transferred to a PCR plate (Catalogue No L1402-9700, Starlab, Milton Keynes, UK), which was frozen (-20° C.) until use. After thawing, supernatant (5 µL) was diluted 1:20 by adding R7-PBS solution (95 µL; 1:4 R7 to PBS; Bio-Rad Laboratories, Redmond, WA, USA). GM levels in these samples (50 µL) were measured using Platelia GM-EIA kits (Bio-Rad Laboratories, Redmond, WA, USA). The percentage inhibition for each well was calculated and the IC50 value was calculated from the concentration-response curve generated for each test compound.

[2] = Cell viability: resazurin assay; assay type: cell-based, human; details: human, BEAS2B cells; n = 3-5
Method: BEAS2B cells were seeded in 384-well plates (100 µL; 3000 / well /; BD Falcon, Catalogue No 353962) in RPMI-LHC8 (RPMI-1640 and LHC8 media combined in equal proportions) one day before experimentation. For cell-free control wells, RPMI-LHC8 (100 µL) was added. Test compounds (0.5 µL of a DMSO solution) were added to give a final DMSO concentration of 0.5% using an Integra VIAFLO 96 (Integra, Zizers, Switzerland). BEAS2B cells were incubated with each test compound for 1 day (37° C. / 5% CO2 in RPMI-LHC8). After addition of resazurin stock solution (5 µL, 0.04%) the plates were incubated for a further 4 hr (37° C. / 5% CO2). The fluorescence of each well at 545 nm (excitation) and 590 nm (emission) was determined using a multi-scanner (Clariostar: BMG Labtech). The percentage loss of cell viability was calculated for each well relative to vehicle (0.5% DMSO) treatment. Where appropriate, a CC50 value was calculated from the concentration-response curve generated from the concentration-response curve for each test compound.

[3] = test system: Aspergillus fumigatus L98H (TR34/L98H); assay: Broth microdilution assay (modified EUCAST); assay type: cell-based; details: Aspergillus fumigatus, read-out: MIC75 against Aspergillus fumigatus isolate L98H
Method: (§1) This assay was conducted using a modified method published by EUCAST (Rodriguez-Tudela et al., 2008). Spores of aspergillus fumigatus (NCPF2010, NCPF7010 (Methionine 220 mutation), NCPF7099 (Glycine G54 mutation) from Public Health England, Wiltshire; TR34/L98H mutants from St Louis Hospital, Paris, France) were cultured in Sabouraud dextrose agar for 3 days. A stock spore suspension was prepared from a Sabouraud dextrose agar culture by washing with PBS-tween (10 mL; PBS containing 0.05% Tween-20, 100 U/mL Penicillin and 100 U/mL Streptomycin). The spore count was assessed using a Neubauer haemocytometer and then adjusted to 10^6 spores/mL with PBS. A working suspension of spores (2 × 10^5 spores/mL) was prepared in filter sterilised, BSA MOPS RPMI-1640 (50 mL; RPMI-1640 containing 2 mM L-glutamine, 0.5% BSA, 2% glucose, 0.165 M MOPS, buffered to pH 7 with NaOH). For the assay, BSA MOPS RPMI-1640 (50 µL/well) was added throughout the 384-well plate (Catalogue number 353962, BD Falcon, Oxford, UK) first. Test compounds (0.5 µL DMSO solution) were then added in quadruplicate using an Integra VIAFLO 96 (Integra, Zizers, Switzerland), and mixed well using a plate mixer. Subsequently 50 µL of the working spore suspension prepared above was added to all wells except non-spore control wells. For non-spore control wells, BSA MOPS-RPMI solution (50 µL/well) was added instead. The plate was covered with a plastic lid, and incubated (35° C. with ambient air) for 48 hr. The OD of each well at 530 nm was determined using a multi-scanner (Clariostar: BMG, Buckinghamshire, UK). The percentage inhibition for each well was calculated and the MIC50, MIC75 and MIC90 values were calculated from the concentration-response curve generated for each test compound.

[4] = test system: Aspergillus fumigatus NCPF2010; assay: Broth microdilution assay (modified EUCAST); assay type: cell-based; details: Aspergillus fumigatus, NCPF2010, read-out: MIC75 against Aspergillus fumigatus isolate NCPF2010
Method: as §1

[5] = test system: Aspergillus fumigatus NCPF7099; assay: Broth microdilution assay (modified EUCAST); assay type: cell-based; details: Aspergillus fumigatus, NCPF7099, n = 3, read-out: MIC75 against Aspergillus fumigatus isolate NCPF7099
Method: as §1

[6] = test system: Aspergillus fumigatus NCPF7100; assay: Broth microdilution assay (modified EUCAST); assay type: cell-based; details: Aspergillus fumigatus, NCPF7100, read-out: MIC75 against Aspergillus fumigatus isolate NCPF7100

SMILES | MIC50 [1] | CC50 at 1 day [2] | MIC [3] | MIC [4] | MIC [5] | MIC [6]
Cc1cc(N2CCN(c3ccc(C(=O)Nc4ccc(C#N)cn4)cc3)CC2)ccc1OC[C@@H]1CO[C@@](Cn2cncn2)(c2ccc(F)cc2F)C1 [Example 7] | 0.0125 µM (≈ 0.00863 µg/mL) | > 14.5 µM | 0.0419 µM (≈ 0.0289 µg/mL) | 0.00586 µM (≈ 0.00405 µg/mL) | 0.0141 µM (≈ 0.00974 µg/mL) | 0.00407 µM (≈ 0.00281 µg/mL)
Cc1cc(N2CCN(c3ccc(C(=O)Nc4cccc(C#N)c4)cc3)CC2)ccc1OC[C@@H]1CO[C@@](Cn2cncn2)(c2ccc(F)cc2F)C1 [Example 8, 4-(4-(4-(((3R,5R)-5-((1H-1,2,4-triazol-1-yl)methyl)-5-(2,4-difluorophenyl)tetrahydrofuran-3-yl)methoxy)-3-methylphenyl)piperazin-1-yl)-N-(3-cyanophenyl)benzamide] | 0.0142 µM (≈ 0.00979 µg/mL) | 0.548 µM | > 1.45 µM | 0.0127 µM (≈ 0.00876 µg/mL) | > 1.45 µM | > 1.45 µM
Cc1cc(N2CCN(c3ccc(C(=O)Nc4ccc(C#N)cc4)cc3)CC2)ccc1OC[C@@H]1CO[C@@](Cn2cncn2)(c2ccc(F)cc2F)C1 [Example 9, 4-(4-(4-(((3R,5R)-5-((1H-1,2,4-triazol-1-yl)methyl)-5-(2,4-difluorophenyl)tetrahydrofuran-3-yl)methoxy)-3-methylphenyl)piperazin-1-yl)-N-(4-cyanophenyl)benzamide] | 0.00521 µM (≈ 0.00359 µg/mL) | > 14.5 µM | 0.114 µM (≈ 0.0786 µg/mL) | 0.0291 µM (≈ 0.0201 µg/mL) | 0.00739 µM (≈ 0.0051 µg/mL) | 0.0232 µM (≈ 0.016 µg/mL)
Cc1cc(N2CCN(c3ccc(C(=O)Nc4ccc(C#N)cc4)cc3)CC2)cc(C)c1OC[C@@H]1CO[C@@](Cn2cncn2)(c2ccc(F)cc2F)C1 [Example 11, 4-(4-(4-(((3R, 5R)-5-((1H-1,2,4-triazol-1-yl)methyl)-5-(2,4-difluorophenyl)tetrahydrofuran-3-yl)methoxy)-3,5-dimethylphenyl)piperazin-1-yl)-N-(4-cyanophenyl)benzamide] | 0.284 µM (≈ 0.2 µg/mL) | > 14.2 µM | 0.179 µM (≈ 0.126 µg/mL) | 0.0236 µM (≈ 0.0166 µg/mL) | 0.049 µM (≈ 0.0345 µg/mL) | 0.0529 µM (≈ 0.0372 µg/mL)
Cc1cc(N2CCN(c3ccc(C(=O)Nc4ccc(OC(F)F)cc4)cc3)CC2)ccc1OC[C@@H]1CO[C@@](Cn2cncn2)(c2ccc(F)cc2F)C1 [Example 12, 4-(4-(4-(((3R,5R)-5-((1H-1,2,4-triazol-1-yl)methyl)-5-(2,4-difluorophenyl)tetrahydrofuran-3-yl)methoxy)-3-methylphenyl)piperazin-1-yl)-N-(4-difluoromethoxyphenyl)benzamide] | 0.0973 µM (≈ 0.0711 µg/mL) | > 13.7 µM | 0.0459 µM (≈ 0.0335 µg/mL) | 0.0134 µM (≈ 0.00979 µg/mL) | 0.0228 µM (≈ 0.0167 µg/mL) | 0.0303 µM (≈ 0.0221 µg/mL)
Cc1cc(N2CCN(c3ccc(C(=O)Nc4cccc(F)c4)cc3)CC2)ccc1OC[C@@H]1CO[C@@](Cn2cncn2)(c2ccc(F)cc2F)C1 [Example 14, 4-(4-(4-(((3R, 5R)-5-((1H-1,2,4-triazol-1-yl)methyl)-5-(2,4-difluorophenyl)tetrahydrofuran-3-yl)methoxy)3-methylphenyl)piperazin-1-yl)-N-(3-fluorophenyl)benzamide] | 0.00836 µM (≈ 0.00571 µg/mL) | > 14.6 µM | 0.0735 µM (≈ 0.0502 µg/mL) | 0.0431 µM (≈ 0.0294 µg/mL) | 0.0332 µM (≈ 0.0227 µg/mL) | 0.041 µM (≈ 0.028 µg/mL)
Cc1cc(N2CCN(c3ccc(C(=O)Nc4ccc(F)cc4)cc3)CC2)cc(C)c1OC[C@@H]1CO[C@@](Cn2cncn2)(c2ccc(F)cc2F)C1 [Example 15, 4-(4-(4-(((3R,5R)-5-((1H-1,2,4-triazol-1-yl)methyl)-5-(2,4-difluorophenyl)tetrahydrofuran-3-yl)methoxy)-3,5-dimethylphenyl)piperazin-1-yl)-N-(4-fluorophenyl)benzamide] | 0.00764 µM (≈ 0.00532 µg/mL) | > 14.4 µM | > 1.44 µM | 0.029 µM (≈ 0.0202 µg/mL) | 0.0184 µM (≈ 0.0128 µg/mL) | 0.00845 µM (≈ 0.00589 µg/mL)
CNS(=O)(=O)c1ccc(NC(=O)c2ccc(N3CCN(c4ccc(OC[C@@H]5CO[C@@](Cn6cncn6)(c6ccc(F)cc6F)C5)c(C)c4)CC3)cc2)cc1 [Example 20, 4-(4-(4-(((3R, 5R)-5-((1H-1,2,4-triazol-1-yl)methyl)-5-(2,4-difluorophenyl)tetrahydrofuran-3-yl)methoxy)-3-methylphenyl)piperazin-1-yl)-N-(4-(N-methylsulfamoyl)phenyl)benzamide] | 0.0361 µM (≈ 0.0274 µg/mL) | > 13.2 µM | 0.0461 µM (≈ 0.0349 µg/mL) | 0.0188 µM (≈ 0.0142 µg/mL) | 0.0111 µM (≈ 0.00841 µg/mL) | 0.0146 µM (≈ 0.0111 µg/mL)
Cc1cc(N2CCN(c3ccc(C(=O)Nc4ccc(S(=O)(=O)N(C)C)cc4)cc3)CC2)ccc1OC[C@@H]1CO[C@@](Cn2cncn2)(c2ccc(F)cc2F)C1 [Example 21] | 0.00386 µM (≈ 0.00298 µg/mL) | > 13 µM | 0.0517 µM (≈ 0.0399 µg/mL) | 0.0374 µM (≈ 0.0289 µg/mL) | 0.0211 µM (≈ 0.0163 µg/mL) | 0.0317 µM (≈ 0.0245 µg/mL)
Cc1cc(N2CCN(c3ccc(C(=O)Nc4ccc(OC(F)F)c(F)c4)cc3)CC2)ccc1OC[C@@H]1CO[C@@](Cn2cncn2)(c2ccc(F)cc2F)C1 [Example 25, 4-(4-(4-(((3R,5R)-5-((1H-1,2,4-triazol-1-yl)methyl)-5-(2,4-difluorophenyl)tetrahydrofuran-3-yl)methoxy)-3-methylphenyl)piperazin-1-yl)-N-(4-(difluoromethoxy)-3-fluorophenyl) benzamide] | 0.23 µM (≈ 0.172 µg/mL) | > 13.4 µM | 0.0659 µM (≈ 0.0493 µg/mL) | 0.0845 µM (≈ 0.0633 µg/mL) | 0.0251 µM (≈ 0.0188 µg/mL) | 0.0476 µM (≈ 0.0356 µg/mL)
Cc1cc(N2CCN(c3ccc(C(=O)Nc4cc(F)ccc4F)cc3)CC2)ccc1OC[C@@H]1CO[C@@](Cn2cncn2)(c2ccc(F)cc2F)C1 [Example 26, 4-(4-(4-(((3R, 5R)-5-((1H-1,2,4-triazol-1-yl)methyl)-5-(2,4-difluorophenyl)tetrahydrofuran-3-yl)methoxy)-3-methylphenyl)piperazin-1-yl)-N-(2,5-difluorophenyl)benzamide] | > 1.43 µM | > 14.3 µM | 0.126 µM (≈ 0.0883 µg/mL) | 0.0311 µM (≈ 0.0218 µg/mL) | 0.131 µM (≈ 0.0918 µg/mL) | 0.091 µM (≈ 0.0638 µg/mL)
Cc1cc(N2CCN(c3ccc(C(=O)Nc4cc(F)cc(F)c4)cc3)CC2)ccc1OC[C@@H]1CO[C@@](Cn2cncn2)(c2ccc(F)cc2F)C1 [Example 28, 4-(4-(4-(((3R, 5R)-5-((1H-1,2,4-triazol-1-yl)methyl)-5-(2,4-difluorophenyl)tetrahydrofuran-3-yl)methoxy)3-methylphenyl)piperazin-1-yl)-N-(3,5-difluorophenyl)benzamide] | 0.0117 µM (≈ 0.0082 µg/mL) | > 14.3 µM | 0.198 µM (≈ 0.139 µg/mL) | 0.0319 µM (≈ 0.0224 µg/mL) | 0.0266 µM (≈ 0.0186 µg/mL) | 0.0361 µM (≈ 0.0253 µg/mL)
